According to paper PMC6107088 (Inorganic chemistry, 2018):

Tests used:
[1] = target: yeast iso-1 cytochrome c WT* (pseudo-wild-type), ferric (Saccharomyces cerevisiae, UniProt P00044, C108S/K78A); assay: equilibrium titration, Soret absorbance at […] and […] nm, one-site fit; assay type: binding
[2] = target: yeast iso-1 cytochrome c WT* (pseudo-wild-type), ferric (Saccharomyces cerevisiae, UniProt P00044, C108S/K78A/K79A/K85G/M86K); assay: as above; assay type: binding
[3] = target: Lys80 (UniProt position 86, IPGTGKAFGGL); assay: UV-vis; conditions: ferric protein; Lys80/His18-ligated haem converting to H2O/His-ligated haem; cited from earlier work

Chain of yeast iso-1 cytochrome c WT* (pseudo-wild-type), ferric (Saccharomyces cerevisiae, UniProt P00044, C108S/K78A) (P00044 2-109 K78A/C108S): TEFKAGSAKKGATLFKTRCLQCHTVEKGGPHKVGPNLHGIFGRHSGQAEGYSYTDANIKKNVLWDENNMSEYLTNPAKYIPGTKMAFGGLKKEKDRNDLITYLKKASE
Chain of yeast iso-1 cytochrome c WT* (pseudo-wild-type), ferric (Saccharomyces cerevisiae, UniProt P00044, C108S/K78A/K79A/K85G/M86K) (P00044 2-109 K78A/K79A/K85G/M86K/C108S): as the sequence (P00044 2-109 K78A/C108S) above, with K78A, K84G, M85K counted along it

Compound	Kd [1] [µM]	Kd [2] [µM]	pKa [3]
c1c[nH]cn1 [imidazole]	2780	2330	
iso-1 cytochrome c, M80K# (K73A/K79G/M80K in WT* background) (Saccharomyces cerevisiae; K72A;K73A;K79G;M80K;C102S)			4.9 ± 0.2
